± gives the expanded uncertainty stated by the source.
Test: mn = molality of the nth substance listed, in mol/kg
Details: 100 kPa, Liquid; for speed of sound: Frequency=3 MHz, Single path-length method; for mass density: Vibrating tube method

O [water] + OCCO
Details	speed of sound [m/s]
303.15 K, m2 = 0	1508.5 ± 2

O [water] + OCCOCCO
Details	speed of sound [m/s]
303.15 K, m2 = 0	1508.5 ± 2

O [water] + OCC(O)CO
m2 = 0
Details	speed of sound [m/s]
298.15 K	1495.9 ± 2
303.15 K	1508.5 ± 2
308.15 K	1519.1 ± 2

OCC(O)CO [glycerol] + O
Details	mass density, 293.15 K [kg/m3]	mass density, 298.15 K [kg/m3]	mass density, 303.15 K [kg/m3]	mass density, 308.15 K [kg/m3]	speed of sound, 293.15 K [m/s]	speed of sound, 298.15 K [m/s]	speed of sound, 303.15 K [m/s]	speed of sound, 308.15 K [m/s]
m1 = 0.01	998.45 ± 0.3	997.31 ± 0.3	995.87 ± 0.3	994.25 ± 0.3	1483.2 ± 2	1497 ± 2	1509.3 ± 2	1519.9 ± 2
m1 = 0.03	998.87 ± 0.3	997.71 ± 0.3	996.3 ± 0.3	994.68 ± 0.3	1484 ± 2	1497.8 ± 2	1510 ± 2	1520.6 ± 2
m1 = 0.05	999.29 ± 0.3	998.12 ± 0.3	996.72 ± 0.3	995.09 ± 0.3	1484.8 ± 2	1498.6 ± 2	1510.7 ± 2	1521.2 ± 2

OCCOCCOCCO [triethylene glycol] + O
Details	mass density, m1 = 0.0965 [kg/m3]	mass density, m1 = 0.2002 [kg/m3]	mass density, m1 = 0.292 [kg/m3]	mass density, m1 = 0.3986 [kg/m3]	mass density, m1 = 0.4988 [kg/m3]	speed of sound, m1 = 0.0965 [m/s]	speed of sound, m1 = 0.2002 [m/s]	speed of sound, m1 = 0.292 [m/s]	speed of sound, m1 = 0.3986 [m/s]	speed of sound, m1 = 0.4988 [m/s]
293.15 K	1000.31 ± 0.31	1002.46 ± 0.31	1004.29 ± 0.32	1006.36 ± 0.34	1008.22 ± 0.36	1489.9 ± 2	1498 ± 2	1504.8 ± 2.1	1513.1 ± 2.1	1520.5 ± 2.2
303.15 K	997.73 ± 0.31	999.86 ± 0.31	1001.67 ± 0.32	1003.69 ± 0.34	1005.54 ± 0.35	1514.9 ± 2	1521.8 ± 2	1528 ± 2.1	1535.1 ± 2.1	1541.7 ± 2.1

O [water] + OCCOCCOCCO
Details	speed of sound [m/s]
303.15 K, m2 = 0	1508.5 ± 2

OCCO [1,2-ethanediol] + O
Details	mass density, m1 = 0.09889 [kg/m3]	mass density, m1 = 0.1989 [kg/m3]	mass density, m1 = 0.2997 [kg/m3]	mass density, m1 = 0.3948 [kg/m3]	mass density, m1 = 0.5016 [kg/m3]	speed of sound, m1 = 0.09889 [m/s]	speed of sound, m1 = 0.1989 [m/s]	speed of sound, m1 = 0.2997 [m/s]	speed of sound, m1 = 0.3948 [m/s]	speed of sound, m1 = 0.5016 [m/s]
293.15 K	999.06 ± 0.3	999.88 ± 0.3	1000.68 ± 0.31	1001.41 ± 0.31	1002.2 ± 0.31	1485.3 ± 2	1488.3 ± 2	1491.2 ± 2	1493.9 ± 2	1496.8 ± 2
303.15 K	996.47 ± 0.3	997.26 ± 0.3	998.03 ± 0.31	998.73 ± 0.31	999.48 ± 0.31	1511.1 ± 2	1513.8 ± 2	1516.2 ± 2	1518.7 ± 2	1521.2 ± 2

OCCOCCO [diethylene glycol] + O
Details	mass density, m1 = 0.09849 [kg/m3]	mass density, m1 = 0.1974 [kg/m3]	mass density, m1 = 0.295 [kg/m3]	mass density, m1 = 0.4101 [kg/m3]	mass density, m1 = 0.5006 [kg/m3]	speed of sound, m1 = 0.09849 [m/s]	speed of sound, m1 = 0.1974 [m/s]	speed of sound, m1 = 0.295 [m/s]	speed of sound, m1 = 0.4101 [m/s]	speed of sound, m1 = 0.5006 [m/s]
293.15 K	999.65 ± 0.3	1001.03 ± 0.31	1002.36 ± 0.31	1003.86 ± 0.32	1004.99 ± 0.33	1487.7 ± 2	1493.1 ± 2	1498.1 ± 2	1504.1 ± 2.1	1508.3 ± 2.1
303.15 K	997.07 ± 0.3	998.39 ± 0.31	999.64 ± 0.31	1001.05 ± 0.32	1002.15 ± 0.32	1513.1 ± 2	1517.6 ± 2	1522 ± 2	1526.9 ± 2	1530.6 ± 2.1
